Experimental data from patent US12552780B2, “Small molecule compound serving as jak kinase inhibitor, and use thereof” (TECHNODERMA MEDICINES, INC., priority 2020, dated 2026).
pIC50: −log10 of the molar value. Where two headings read alike, the source gives them in different places.

How the values were obtained:
Type in all cases: biochemical
Tyk2 = Tyk2 (Homo sapiens, UniProt P29597); assay: Detection of enzyme activity inhibition of JAK kinases (ULight-JAK substrate, Eu-antibody), Tyk2; settings: ATP 10 μM, substrate 50 nM, 1 hour reaction at room temperature, read-out: Tyk2 half-maximum inhibitory concentration (IC50)
Description: (§1) Kinase reaction buffer: The kinase reaction buffer was prepared with the following components: 50 mM HEPES, pH 7.5, 1 mM EGTA, 10 mM MgCl2, 2 mM DTT, and 0.01% Tween20. 1× test buffer: A test buffer was prepared, and the 10× test buffer was diluted with deionized water (deionized water: test buffer=9:1) to obtain the 1× test buffer. 4× kinase solution: JAK kinase was diluted with a kinase reaction buffer to a final concentration of 4× (JAK1:80 nM, JAK2/JAK3/Tyk2:4 nM). 4× substrate solution: ULight™-JAK (Tyr1023) substrate was diluted with the kinase reaction buffer to 200 nM (final concentration: 50 nM). 4× ATP solution: ATP was diluted with the kinase reaction buffer to a final concentration of 4× (JAK1:160 μM, JAK2/JAK3/Tyk2: 40 μM). 4× test compound solution: The compounds to be tested were dissolved in DMSO to prepare 10 mM stock solutions, which were diluted to have the desired concentrations through 3-fold gradient dilution, 10 concentrations were set for each compound, and final concentrations of the test compounds ranged from 10 μM to 0.5 nM. 4× enzyme reaction termination solution: EDTA was dissolved in a 1× test buffer to 40 mM (final concentration of EDTA: 10 mM). 4× test antibody solution: Eu-labeled test antibodies (anti-phosphotyrosine (PT66)) were diluted with 1× test buffer to 8 nM (final concentration of the antibodies: 2 nM). 2.5 μL of the 4× kinase solution and 2.5 μL of each of the 4× test compound solutions having different concentrations were added into a 384-well microwell plate sequentially, with 2 duplicate wells set for each concentration, and an enzyme solution blank control group and a negative control group (DMSO group) were also provided. The 384-well plate was oscillated to mix the enzyme and the compound uniformly, centrifuged at 1000 rpm for 1 minute, and incubated at room temperature for 60 minutes. 2.5 μL of the 4× substrate solution was added into the 384-well plate, and centrifuged at 1000 rpm for 1 minute. 2.5 μL of the 4× ATP solution was added into the 384-well plate, and centrifuged at 1000 rpm for 1 minute to start the enzyme reaction. JAK1 reacted at room temperature for 2 hours, and JAK2/JAK3/Tyk2 reacted at room temperature for 1 hour. The final concentration of each component in the JAK1 reaction was: JAK1:20 nM; substrate: 50 nM; and ATP: 40 μM. The final concentrations of the test compounds ranged from 10 μM to 0.5 nM. The final concentration of each component in the JAK2/JAK3/Tyk2 reaction was: JAK2:1 nM; substrate: 50 nM; and ATP: 10 μM. The final concentrations of the test compounds ranged from 10 μM to 0.5 nM. After the enzyme reaction ended, 5 μL of the 4× enzyme reaction termination solution was added into each well of the 384-well plate, centrifuged at 1000 rpm for 1 minute, and incubated at room temperature for 5 minutes. 5 μL of the 4× test antibody solution (final concentration of the test antibodies was 2 nM) was added into each well of the 384-well plate, centrifuged at 1000 rpm for 1 minute, and incubated at room temperature for 1 hour. After incubation of the antibodies, a signal value of each well was measured with Envision plate reader. Assuming that an inhibition rate of the enzyme solution blank control group was 100% and an inhibition rate of the negative control group (DMSO group) was 0%, an inhibition rate corresponding to each concentration was calculated. Nonlinear regression analysis was performed on the concentration logarithm values and corresponding percentage inhibition rates of the test compounds in GraphPad Prism software to obtain the half-maximum inhibitory concentrations (IC50) of the test compounds.

JAK2 = JAK2 (Homo sapiens, UniProt O60674); assay: Detection of enzyme activity inhibition of JAK kinases (ULight-JAK substrate, Eu-antibody), JAK2; settings: JAK2 1 nM, ATP 10 μM, substrate 50 nM, 1 hour reaction at room temperature, read-out: JAK2 half-maximum inhibitory concentration (IC50)
Description: as §1

JAK3 = target: T1, JAK3 (Homo sapiens, UniProt P52333); assay: Detection of enzyme activity inhibition of JAK kinases (ULight-JAK substrate, Eu-antibody), JAK3; settings: ATP 10 μM, substrate 50 nM, 1 hour reaction at room temperature; read-out: JAK3 half-maximum inhibitory concentration (IC50)
T1 sequence (P52333 1-1124): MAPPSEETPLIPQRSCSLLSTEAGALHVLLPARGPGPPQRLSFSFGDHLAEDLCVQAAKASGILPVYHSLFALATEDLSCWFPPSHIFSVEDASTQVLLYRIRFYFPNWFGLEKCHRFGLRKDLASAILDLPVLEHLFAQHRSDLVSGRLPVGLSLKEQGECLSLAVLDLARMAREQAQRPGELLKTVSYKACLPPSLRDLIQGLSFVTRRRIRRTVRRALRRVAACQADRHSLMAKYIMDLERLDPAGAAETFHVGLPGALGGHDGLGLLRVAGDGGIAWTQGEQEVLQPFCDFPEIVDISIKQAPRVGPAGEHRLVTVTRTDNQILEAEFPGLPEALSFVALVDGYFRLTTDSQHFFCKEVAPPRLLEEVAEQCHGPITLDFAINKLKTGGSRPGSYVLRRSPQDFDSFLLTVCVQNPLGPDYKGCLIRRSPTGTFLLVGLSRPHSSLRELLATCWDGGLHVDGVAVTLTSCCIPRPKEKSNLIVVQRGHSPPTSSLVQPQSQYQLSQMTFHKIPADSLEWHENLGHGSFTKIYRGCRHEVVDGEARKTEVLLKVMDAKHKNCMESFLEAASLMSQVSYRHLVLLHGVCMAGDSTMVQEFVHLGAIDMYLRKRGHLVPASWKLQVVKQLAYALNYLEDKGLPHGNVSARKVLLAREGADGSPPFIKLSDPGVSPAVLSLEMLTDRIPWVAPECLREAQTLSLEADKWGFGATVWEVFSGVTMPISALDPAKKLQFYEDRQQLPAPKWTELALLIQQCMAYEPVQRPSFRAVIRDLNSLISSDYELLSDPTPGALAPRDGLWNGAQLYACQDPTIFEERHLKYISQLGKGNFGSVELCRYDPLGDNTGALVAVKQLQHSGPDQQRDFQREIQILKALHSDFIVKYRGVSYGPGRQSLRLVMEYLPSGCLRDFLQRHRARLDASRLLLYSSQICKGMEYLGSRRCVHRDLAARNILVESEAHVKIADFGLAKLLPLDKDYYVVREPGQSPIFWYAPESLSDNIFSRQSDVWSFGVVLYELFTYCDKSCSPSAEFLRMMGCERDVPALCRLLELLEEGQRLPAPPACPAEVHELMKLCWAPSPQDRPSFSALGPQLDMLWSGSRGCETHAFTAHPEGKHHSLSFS
Description: as §1

JAK1 = JAK1 (Homo sapiens, UniProt P23458); assay: Detection of enzyme activity inhibition of JAK kinases (ULight-JAK substrate, Eu-antibody), JAK1; settings: JAK1 20 nM, ATP 40 μM, substrate 50 nM, 2 hours reaction at room temperature, read-out: JAK1 half-maximum inhibitory concentration (IC50)
Description: as §1

Tyk2, sequence (P29597 whole entry): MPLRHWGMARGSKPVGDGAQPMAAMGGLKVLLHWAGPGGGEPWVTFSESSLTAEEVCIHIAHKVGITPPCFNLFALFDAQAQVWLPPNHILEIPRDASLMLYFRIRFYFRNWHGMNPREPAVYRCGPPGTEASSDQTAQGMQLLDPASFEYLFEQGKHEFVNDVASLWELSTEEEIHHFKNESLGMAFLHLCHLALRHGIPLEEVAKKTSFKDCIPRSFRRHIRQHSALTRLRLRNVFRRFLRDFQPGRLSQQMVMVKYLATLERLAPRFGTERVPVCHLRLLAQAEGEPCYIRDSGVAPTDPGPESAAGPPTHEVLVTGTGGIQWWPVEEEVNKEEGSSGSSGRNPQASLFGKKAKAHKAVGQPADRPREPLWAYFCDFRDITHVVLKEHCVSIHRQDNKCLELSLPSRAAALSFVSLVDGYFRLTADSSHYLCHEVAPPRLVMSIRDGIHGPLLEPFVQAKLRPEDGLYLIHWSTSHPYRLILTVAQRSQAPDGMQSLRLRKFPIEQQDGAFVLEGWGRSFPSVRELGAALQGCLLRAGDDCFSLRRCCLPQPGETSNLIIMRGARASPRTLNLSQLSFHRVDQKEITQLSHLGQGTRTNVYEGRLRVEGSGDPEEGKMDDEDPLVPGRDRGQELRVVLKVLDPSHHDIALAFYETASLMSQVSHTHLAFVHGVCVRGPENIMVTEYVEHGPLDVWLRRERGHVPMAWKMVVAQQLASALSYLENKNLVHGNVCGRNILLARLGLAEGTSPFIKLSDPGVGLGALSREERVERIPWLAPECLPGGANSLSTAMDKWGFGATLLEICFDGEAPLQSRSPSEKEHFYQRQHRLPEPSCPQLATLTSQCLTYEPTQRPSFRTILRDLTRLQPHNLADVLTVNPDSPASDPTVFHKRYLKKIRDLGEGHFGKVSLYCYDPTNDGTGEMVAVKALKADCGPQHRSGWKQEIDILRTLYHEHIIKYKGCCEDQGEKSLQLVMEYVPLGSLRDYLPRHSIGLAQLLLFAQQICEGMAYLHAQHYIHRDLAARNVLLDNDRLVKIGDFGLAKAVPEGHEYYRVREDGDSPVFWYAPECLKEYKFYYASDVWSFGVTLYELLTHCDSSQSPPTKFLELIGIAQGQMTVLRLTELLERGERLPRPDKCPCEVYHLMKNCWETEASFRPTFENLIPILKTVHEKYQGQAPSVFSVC
JAK2, sequence (O60674 whole entry): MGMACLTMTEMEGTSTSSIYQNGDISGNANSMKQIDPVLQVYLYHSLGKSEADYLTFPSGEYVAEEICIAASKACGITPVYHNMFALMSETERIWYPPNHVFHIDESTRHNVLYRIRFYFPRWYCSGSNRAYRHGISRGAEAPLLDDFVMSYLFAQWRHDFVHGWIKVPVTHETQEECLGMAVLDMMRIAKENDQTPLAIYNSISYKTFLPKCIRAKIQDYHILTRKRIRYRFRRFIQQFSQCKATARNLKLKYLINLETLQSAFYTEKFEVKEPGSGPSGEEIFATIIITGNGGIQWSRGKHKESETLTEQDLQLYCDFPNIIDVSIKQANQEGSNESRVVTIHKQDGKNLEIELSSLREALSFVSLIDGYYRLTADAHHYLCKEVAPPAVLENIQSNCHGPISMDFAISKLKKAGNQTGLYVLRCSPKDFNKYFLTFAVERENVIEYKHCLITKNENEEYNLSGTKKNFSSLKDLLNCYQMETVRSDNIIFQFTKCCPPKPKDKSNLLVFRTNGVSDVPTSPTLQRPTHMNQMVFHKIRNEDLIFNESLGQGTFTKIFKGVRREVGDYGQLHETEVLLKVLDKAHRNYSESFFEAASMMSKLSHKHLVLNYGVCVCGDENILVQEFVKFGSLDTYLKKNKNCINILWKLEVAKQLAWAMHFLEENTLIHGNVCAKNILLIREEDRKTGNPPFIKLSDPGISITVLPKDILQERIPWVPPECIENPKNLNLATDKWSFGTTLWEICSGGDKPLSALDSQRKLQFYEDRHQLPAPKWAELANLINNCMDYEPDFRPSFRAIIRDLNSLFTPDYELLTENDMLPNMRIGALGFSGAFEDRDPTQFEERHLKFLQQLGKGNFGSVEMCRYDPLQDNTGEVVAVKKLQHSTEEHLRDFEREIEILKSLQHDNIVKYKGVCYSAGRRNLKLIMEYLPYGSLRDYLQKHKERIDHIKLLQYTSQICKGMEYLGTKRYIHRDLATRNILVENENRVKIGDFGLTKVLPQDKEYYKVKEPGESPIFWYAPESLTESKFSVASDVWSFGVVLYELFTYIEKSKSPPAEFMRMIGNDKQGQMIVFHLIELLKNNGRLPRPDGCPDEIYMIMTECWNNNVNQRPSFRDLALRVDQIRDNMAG
JAK1, sequence (P23458 whole entry): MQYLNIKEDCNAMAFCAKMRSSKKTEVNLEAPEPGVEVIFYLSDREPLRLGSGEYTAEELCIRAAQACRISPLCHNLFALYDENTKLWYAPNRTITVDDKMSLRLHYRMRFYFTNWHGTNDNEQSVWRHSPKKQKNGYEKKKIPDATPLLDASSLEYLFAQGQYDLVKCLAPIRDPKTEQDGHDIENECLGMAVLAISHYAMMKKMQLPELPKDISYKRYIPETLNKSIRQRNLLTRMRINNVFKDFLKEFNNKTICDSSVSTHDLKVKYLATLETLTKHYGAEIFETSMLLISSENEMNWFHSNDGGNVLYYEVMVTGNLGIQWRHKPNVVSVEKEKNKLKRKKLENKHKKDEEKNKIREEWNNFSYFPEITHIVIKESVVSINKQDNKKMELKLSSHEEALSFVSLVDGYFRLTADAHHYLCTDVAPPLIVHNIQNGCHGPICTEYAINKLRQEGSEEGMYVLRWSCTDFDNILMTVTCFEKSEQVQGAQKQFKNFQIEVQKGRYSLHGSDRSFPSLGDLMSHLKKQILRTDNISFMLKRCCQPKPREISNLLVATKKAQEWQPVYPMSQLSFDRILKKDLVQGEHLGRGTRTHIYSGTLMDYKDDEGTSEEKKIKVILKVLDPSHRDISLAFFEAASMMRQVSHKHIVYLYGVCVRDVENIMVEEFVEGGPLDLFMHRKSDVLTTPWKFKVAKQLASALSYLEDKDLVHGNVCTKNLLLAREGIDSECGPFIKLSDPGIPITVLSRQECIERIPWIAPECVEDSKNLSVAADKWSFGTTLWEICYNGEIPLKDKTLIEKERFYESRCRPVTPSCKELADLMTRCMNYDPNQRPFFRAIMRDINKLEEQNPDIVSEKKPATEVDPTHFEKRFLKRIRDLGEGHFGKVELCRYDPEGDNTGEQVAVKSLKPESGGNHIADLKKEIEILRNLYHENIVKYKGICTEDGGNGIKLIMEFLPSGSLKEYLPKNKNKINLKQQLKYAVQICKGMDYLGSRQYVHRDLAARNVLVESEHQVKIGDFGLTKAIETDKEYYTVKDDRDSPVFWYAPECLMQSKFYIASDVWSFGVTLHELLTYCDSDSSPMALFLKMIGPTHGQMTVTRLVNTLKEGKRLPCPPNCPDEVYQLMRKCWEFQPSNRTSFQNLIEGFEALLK

Compound	pIC50 (Tyk2)	pIC50 (JAK2)	pIC50 (JAK3)	pIC50 (JAK1)	pIC50 (Tyk2; listed as TDM-18097)	pIC50 (JAK1; listed as TDM-18097)	pIC50 (JAK2; listed as TDM-18097)
CCNC(=O)c1ccc(Nc2nccc(-c3ccn(C4(CC#N)CN(C(=O)[C@@H]5CC5(F)F)C4)c3)n2)cc1 [TDM-180973, (S)-4-((4-(1-(3-(cyanomethyl)-1-(2,2-difluorocyclopropane-1-carbonyl)azetidin-3-yl)-1H-pyrrol-3-yl)pyrimidin-2-yl)amino)-N-ethylbenzamide]	8.15	8.05	6.35	–	–	–	–
Cc1cc(Nc2nccc(-c3ccn(C4(CC#N)CN(C(=O)[C@@H]5CC5(F)F)C4)c3)n2)cnc1C(N)=O [TDM-180975, (S)-5-((4-(1-(3-(cyanomethyl)-1-(2,2-difluorocyclopropane-1-carbonyl)azetidin-3-yl)-1H-pyrrol-3-yl)pyrimidin-2-yl)amino)-3-methylpyridinolineamide]	8.10	8.15	6.17	7.92	–	–	–
CNC(=O)c1ncc(Nc2nccc(-c3ccn(C4(CC#N)CN(C(=O)[C@@H]5CC5(F)F)C4)c3)n2)cc1C [TDM-180976, (S)-5-((4-(1-(3-(cyanomethyl)-1-(2,2-difluorocyclopropane-1-carbonyl)azetidin-3-yl)-1H-pyrrol-3-yl)pyrimidin-2-yl)amino)-N,3-dimethylpyridinecarboxamide]	8.05	7.89	6.22	8.05	–	–	–
CCNC(=O)c1ccc(Nc2nccc(-c3cnn(C4(CC#N)CN(C(=O)[C@@H]5CC5(F)F)C4)c3)n2)cc1 [TDM-180982, (S)-4-((4-(1-(3-(cyanomethyl)-1-(2,2-difluorocyclopropane-1-carbony)azetidn-3-yl)-1H-pyrazol-4-yl)pyrimidin-2-yl)amino)-N-ethylbenzamide]	7.72	7.66	5.89	7.74	–	–	–
CCNC(=O)c1ccc(Nc2nccc(-c3cnn(C4(CC#N)CN(C(=O)[C@@H]5CC5(F)F)C4)c3)n2)cc1C [TDM-180983]	7.77	7.57	6.10	7.35	–	–	–
CNC(=O)c1ncc(Nc2nccc(-c3cnn(C4(CC#N)CN(C(=O)[C@@H]5CC5(F)F)C4)c3)n2)cc1C [TDM-180985, (S)-5-((4-(1-(3-(cyanomethyl)-1-(2,2-difluorocyclopropane-1-carbonyl)azetidin-3-yl)-1H-pyrazol-4-yl)pyrimidin-2-yl)amino)-N,3-dimethylpyridinecarboxamide]	7.68	7.19	5.63	7.27	–	–	–
Cc1cc(Nc2nccc(-c3cnn(C4(CC#N)CN(C(=O)[C@@H]5CC5(F)F)C4)c3)n2)cnc1C(N)=O [TDM-180986, (S)-5-((4-(1-(3-(cyanomethyl)-1-(2,2-difluorocyclopropane-1-carbonyl)azetidin-3-yl)-1H-pyrazol-4-yl)pyrimidin2-yl)amino)-3-methylpyridinolineamide]	7.25	7.28	5.51	6.90	–	–	–
CC(CO)c1ccc(Nc2nccc(-c3cnn(C4(CC#N)CN(C(=O)[C@@H]5CC5(F)F)C4)c3)n2)cn1 (stereo partly drawn) [TDM-180990, 2-(1-((S)-2,2-difluorocyclopropane-1-carbonyl)-3-(4-(2-((6-(1-hydroxypropan-2-yl)pyridine-3-yl)amino)pyrimidin-4-yl)-1H-pyrazol-1-yl)azetidin-3-yl)acetonitrile]	6.95	–	–	6.65	–	–	–
CC(CO)c1ccc(Nc2nccc(-c3ccn(C4(CC#N)CN(C(=O)[C@@H]5CC5(F)F)C4)c3)n2)cn1 (stereo partly drawn) [TDM-180996, 2-(1-((S)-2,2-difluorocyclopropane-1-carbonyl)-3-(3-(2-((6-(1-hydroxypropan-2-yl)pyridine-3-yl)amino)pyrimidin-4-yl)-1H-pyrrol-1-yl)azetidin-3-yl) acetonitrile]	7.41	7.42	6.07	7.26	–	–	–
(S)-4-((4-(1-(3-(cyanomethyl)-1-(2,2-difluorocyclopropane-1-carbonyl)azetidin-3-yl)-1H-pyrrol-3-yi)pyrimidin-2-yl)amino)-N-ethyl-2-methylbenzamide [TDM-180978]	7.96	7.92	6.55	8.15	~8.00	~8.00	~8.00
